Legend:
[1] = biological target: T1, Glucose-dependent insulinotropic receptor (Homo sapiens, UniProt Q8TDV5); assay: Agonist activity at human GPR119 expressed in HEK293 cells assessed as increase in cAMP level incubated for 45 mins by cAMP HTRF assay; type: functional, cell-based
T1 sequence (Q8TDV5 whole entry): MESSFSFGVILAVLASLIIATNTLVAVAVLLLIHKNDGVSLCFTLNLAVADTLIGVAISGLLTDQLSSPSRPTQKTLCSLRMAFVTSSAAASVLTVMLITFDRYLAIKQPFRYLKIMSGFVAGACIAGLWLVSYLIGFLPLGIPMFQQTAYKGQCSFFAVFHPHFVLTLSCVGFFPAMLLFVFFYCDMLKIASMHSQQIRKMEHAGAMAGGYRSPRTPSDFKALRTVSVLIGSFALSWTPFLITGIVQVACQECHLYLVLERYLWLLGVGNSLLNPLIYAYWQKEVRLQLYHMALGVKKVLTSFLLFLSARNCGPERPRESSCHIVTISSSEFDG

[2] = Apparent permeability across apical to basolateral side in MDCK cells incubated at 10 uM; type: ADME, cell-based, Canis lupus familiaris; conditions: dog
[3] = Lipophilicity, logD of compound in octanol and buffer in pH 7.4 incubated for 30 mins under shaking condition by LC/UV analysis; type: physicochemical
[4] = Lipophilicity, logD of compound at pH 7.4 by Shake-flask distribution coefficient method; type: physicochemical; conditions: octanol/water
[5] = Dissociation constant, pKa of compound; type: physicochemical
[6] = Intrinsic clearance in human liver microsomes; type: ADME, Microsome; conditions: read-out: CLH
[7] = Intrinsic clearance in human hepatocytes assessed per 10^6 cells; type: ADME, cell-based, Hepatocyte; conditions: read-out: CLH
[8] = Intrinsic clearance in rat hepatocytes assessed per 10^6 cells; type: ADME, cell-based, Hepatocyte; conditions: read-out: CLH
[9] = Apparent permeability in human Caco2 cells at 10 uM; type: ADME, cell-based; conditions: Caco-2

Row | EC50 [1] [µM] | Papp A→B at 10 µM [2] [nm/s] | logD at 0.5 h [3] | logD [4] | pKa [5] | microsomal CLint [6] [µL/min/mg] | hepatocyte CLint [7] [µL/min/1e6 cells] | hepatocyte CLint [8] [µL/min/1e6 cells] | Papp at 10 µM [9] [nm/s] | Compound
1 | 16 | 170 | 2.5 |  |  |  |  |  |  | CC(C)(C)OC(=O)N1CC2(C1)CN(c1ncc(OCc3ccncc3C#N)cn1)C2
2 |  |  |  | 0.8 | 8.2 | < 3 | < 1 | 8 | 41 | c1nc(N[C@H]2CC[C@H](N3CC4(COC4)C3)CC2)c2c(C3CCOCC3)c[nH]c2n1

From ChEMBL document CHEMBL4665667, “Lowering Lipophilicity by Adding Carbon: AzaSpiroHeptanes, a logD Lowering Twist” (ACS Med Chem Lett, 2019)
